Data reported in the NIST ThermoML archive (doi:10.1021/je301371p).
± gives the expanded uncertainty stated by the source.

Experiment: xn = mol fraction of the nth substance listed
Conditions: 101 kPa, Liquid; for viscosity: Oscillating disk viscometry; for mass density: Vibrating tube method

O [water] + CCN(CC)CCO
x2 = 0
Conditions | mass density [kg/m3] | viscosity [mPa·s]
298.15 K | – | 0.89 ± 0.11
303.15 K | – | 0.8 ± 0.1
313.15 K | – | 0.65 ± 0.08
323.15 K | – | 0.55 ± 0.07
333.15 K | 983.2 ± 0.29 | 0.48 ± 0.06

CCN(CC)CCO [(diethylamino)ethanol] + O
Conditions | mass density, 298.15 K [kg/m3] | mass density, 313.15 K [kg/m3] | mass density, 333.15 K [kg/m3] | viscosity, 298.15 K [mPa·s] | viscosity, 303.15 K [mPa·s] | viscosity, 313.15 K [mPa·s] | viscosity, 323.15 K [mPa·s] | viscosity, 333.15 K [mPa·s]
x1 = 0.02012 | 993.744 ± 0.29 | 987.552 ± 0.29 | 976.86 ± 0.29 | 2.16 ± 0.26 | 1.4 ± 0.17 | 1.12 ± 0.13 | 0.94 ± 0.11 | 0.75 ± 0.09
x1 = 0.04547 | 990.151 ± 0.29 | 981.577 ± 0.29 | 968.366 ± 0.29 | 3.62 ± 0.44 | 2.34 ± 0.28 | 1.66 ± 0.2 | 1.32 ± 0.16 | 1.03 ± 0.12
x1 = 0.07875 | 983.322 ± 0.29 | 972.648 ± 0.29 | 957.191 ± 0.29 | – | 3.61 ± 0.44 | 2.42 ± 0.29 | 1.72 ± 0.21 | 1.24 ± 0.15
x1 = 0.1252 | 971.858 ± 0.29 | 959.656 ± 0.29 | 942.334 ± 0.28 | 8 ± 0.97 | 5.75 ± 0.69 | 3.76 ± 0.45 | 2.6 ± 0.31 | 1.87 ± 0.23
x1 = 0.1933 | 961.569 ± 0.29 | 948.632 ± 0.29 | 930.379 ± 0.29 | 11.61 ± 1.4 | 8.05 ± 0.97 | 5.27 ± 0.63 | 3.69 ± 0.44 | 2.53 ± 0.3

NCCCCN [1,4-butanediamine] + O
Conditions | mass density, 298.15 K [kg/m3] | mass density, 313.15 K [kg/m3] | mass density, 333.15 K [kg/m3] | viscosity, 303.15 K [mPa·s] | viscosity, 313.15 K [mPa·s] | viscosity, 323.15 K [mPa·s] | viscosity, 333.15 K [mPa·s]
x1 = 0.01952 | 992.346 ± 0.29 | 986.497 ± 0.29 | 976.433 ± 0.29 | 1.23 ± 0.15 | 0.98 ± 0.12 | 0.8 ± 0.1 | 0.63 ± 0.08
x1 = 0.04244 | 988.532 ± 0.3 | 981.237 ± 0.3 | 969.713 ± 0.3 | 1.83 ± 0.22 | 1.39 ± 0.17 | 1.1 ± 0.13 | 0.9 ± 0.11
x1 = 0.06965 | 985.772 ± 0.31 | 976.817 ± 0.31 | 963.518 ± 0.3 | 2.51 ± 0.3 | 1.85 ± 0.22 | 1.4 ± 0.17 | 1.06 ± 0.13
x1 = 0.1025 | 982.813 ± 0.32 | 972.197 ± 0.32 | 957.323 ± 0.31 | 3.65 ± 0.44 | 2.57 ± 0.31 | 1.86 ± 0.22 | 1.37 ± 0.17
x1 = 0.1434 | 978.544 ± 0.33 | 966.791 ± 0.33 | 950.667 ± 0.33 | 4.87 ± 0.59 | 3.29 ± 0.4 | 2.29 ± 0.28 | 1.62 ± 0.2

O [water] + NCCCCN
x2 = 0
Conditions | mass density [kg/m3] | viscosity [mPa·s]
298.15 K | – | 0.89 ± 0.11
303.15 K | – | 0.8 ± 0.1
313.15 K | – | 0.65 ± 0.08
323.15 K | – | 0.55 ± 0.07
333.15 K | 983.2 ± 0.29 | 0.48 ± 0.06
